Experimental data as given in publication PMC8286840, “Identifying SARS-CoV-2 antiviral compounds by screening for small molecule inhibitors of Nsp3 papain-like protease” (Biochemical Journal, 2021).
Structures can show the parent of a compound that is named as a salt. Where two headings read alike, the source gives them in different places.

What was measured:
[1] = molecular target: T1, SARS-CoV-2 PLpro (nsp3 1564–1878) (Severe acute respiratory syndrome coronavirus 2, UniProt P0DTD1); experiment: biochemical; design: FRET-quenched peptide (Pro3) cleavage by PLpro, 10 min pre-incubation, slope over 20 min, normalised to no-compound control; conditions: read-out: % of control remaining
[2] = molecular target: T1, SARS-CoV-2 PLpro (nsp3 1564–1878); experiment: biochemical; design: FRET-quenched peptide (Pro3) cleavage by PLpro, 10 min pre-incubation, slope over 20 min, normalised to no-compound control; conditions: read-out: % of control remaining; remark: listed apart in the source

## CN1CCC(=C2c3ccccc3CC(=O)c3sccc32)CC1 [Ketotifen fumarate]
[1]; Well no.=1069, low concentration screen
  remaining activity at 1.25 µM: 101%
[2]; Well no.=1069, high concentration screen
  remaining activity at 3.75 µM: 95.3%

## COC(=O)[C@@H]1CC2=CC(=O)CC[C@]2(C)[C@@]23O[C@@H]2C[C@@]2(C)[C@@H](CC[C@@]24CCC(=O)O4)[C@H]13 [Eplerenone]
[1]; Well no.=5343, low concentration screen
  remaining activity at 1.25 µM: 97.5%
[2]; Well no.=5343, high concentration screen
  remaining activity at 3.75 µM: 96.5%

## CC1(C)S[C@@H]2[C@H](NC(=O)[C@H](NC(=O)N3CCNC3=O)c3ccccc3)C(=O)N2[C@H]1C(=O)O [Azlocillin (sodium salt)]
[1]; Well no.=7454, low concentration screen
  remaining activity at 1.25 µM: 94.9%
[2]; Well no.=7454, high concentration screen
  remaining activity at 3.75 µM: 101%

## NC(=O)Nc1cc(-c2cccc(F)c2)sc1C(=O)N[C@H]1CCCNC1 [AZD7762]
[1]; Well no.=2691, low concentration screen
  remaining activity at 1.25 µM: 94.4%
[2]; Well no.=2691, high concentration screen
  remaining activity at 3.75 µM: 95%

## Nc1c(Br)cc(Br)cc1CN[C@H]1CC[C@H](O)CC1 [Ambroxol HCl]
[1]; Well no.=5311, low concentration screen
  remaining activity at 1.25 µM: 99.4%
[2]; Well no.=5311, high concentration screen
  remaining activity at 3.75 µM: 97.1%

## Clc1ccc2c(c1)N=C(N1CCNCC1)c1ccccc1N2 [N-Desmethylclozapine]
[1]; Well no.=7229, low concentration screen
  remaining activity at 1.25 µM: 100%
[2]; Well no.=7229, high concentration screen
  remaining activity at 3.75 µM: 98.9%

## c1ccc2c(c1)[nH]c1cnccc12 [Norharmane]
[1]; Well no.=3262, low concentration screen
  remaining activity at 1.25 µM: 101%
[2]; Well no.=3262, high concentration screen
  remaining activity at 3.75 µM: 98.5%

## CC(C)CCC[C@@H](C)[C@H]1CC[C@H]2[C@@H]3CC(=O)[C@H]4C[C@@H](O)CC[C@]4(C)[C@H]3CC[C@]12C [6-Ketocholestanol]
[1]; Well no.=6021, low concentration screen
  remaining activity at 1.25 µM: 94.9%
[2]; Well no.=6021, high concentration screen
  remaining activity at 3.75 µM: 86.6%

## CN1CCN(CCCN2c3ccccc3Sc3ccc(Cl)cc32)CC1 [Prochlorperazine dimaleate]
[1]; Well no.=1497, low concentration screen
  remaining activity at 1.25 µM: 99.3%
[2]; Well no.=1497, high concentration screen
  remaining activity at 3.75 µM: 101%

## CN1C(=O)c2sccc2N(C)c2nc(Nc3ccc(S(N)(=O)=O)cc3)ncc21 [XMU-MP-1]
[1]; Well no.=8268, low concentration screen
  remaining activity at 1.25 µM: 97%
[2]; Well no.=8268, high concentration screen
  remaining activity at 3.75 µM: 91.6%

## Nc1nc(NC2CC2)c2ncn([C@H]3C=C[C@@H](CO)C3)c2n1 [Abacavir sulfate]
[1]; Well no.=5326, low concentration screen
  remaining activity at 1.25 µM: 97.2%
[2]; Well no.=5326, high concentration screen
  remaining activity at 3.75 µM: 95.9%

## CC(=O)NCCc1c[nH]c2ccc(O)cc12 [N-Acetyl-5-hydroxytryptamine]
[1]; Well no.=201, low concentration screen
  remaining activity at 1.25 µM: 102%
[2]; Well no.=201, high concentration screen
  remaining activity at 3.75 µM: 103%

## NS(=O)(=O)c1ccc(-n2nc(C(F)(F)F)cc2-c2ccc(Cl)cc2)cc1 [SC-236]
[1]; Well no.=5773, low concentration screen
  remaining activity at 1.25 µM: 110%
[2]; Well no.=5773, high concentration screen
  remaining activity at 3.75 µM: 98%

## C[C@H](CCC(=O)NCCS(=O)(=O)O)[C@H]1CC[C@H]2[C@@H]3[C@H](O)C[C@@H]4C[C@H](O)CC[C@]4(C)[C@H]3CC[C@]12C [Taurochenodeoxycholic acid]
[1]; Well no.=6294, low concentration screen
  remaining activity at 1.25 µM: 101%
[2]; Well no.=6294, high concentration screen
  remaining activity at 3.75 µM: 101%
[2]; Well no.=6493, high concentration screen
  remaining activity at 3.75 µM: 103%

## O=C1CC[C@@H](C(=O)O)N1 [L-Pyroglutamic acid]
[1]; Well no.=6783, low concentration screen
  remaining activity at 1.25 µM: 102%
[2]; Well no.=6783, high concentration screen
  remaining activity at 3.75 µM: 104%

## CCCCC/C=C\C\C=C/C=C/C=C/[C@@H](O)[C@@H](O)CCCC(=O)O [5(S),6(R)-DIHETE]
[1]; Well no.=4373, low concentration screen
  remaining activity at 1.25 µM: 106%
[2]; Well no.=4373, high concentration screen
  remaining activity at 3.75 µM: 103%

## CC(C)NC[C@H](O)c1ccc(O)c(O)c1 [(-)-Isoproterenol hydrochloride]
[1]; Well no.=917, low concentration screen
  remaining activity at 1.25 µM: 107%
[2]; Well no.=917, high concentration screen
  remaining activity at 3.75 µM: 106%

## CCCN(CCc1cccs1)[C@H]1CCc2c(O)cccc2C1 [Rotigotine (Hydrochloride)]
[1]; Well no.=8157, low concentration screen
  remaining activity at 1.25 µM: 96.4%
[2]; Well no.=8157, high concentration screen
  remaining activity at 3.75 µM: 89.4%

## CN1CCN(C2=Nc3cc(F)ccc3Cc3ccccc32)CC1 [Fluperlapine]
[1]; Well no.=2100, low concentration screen
  remaining activity at 1.25 µM: 101%
[2]; Well no.=2100, high concentration screen
  remaining activity at 3.75 µM: 98.8%

## COc1ccc2cc1Oc1ccc(cc1)C[C@H]1c3cc(c(OC)cc3CCN1C)Oc1c(OC)c(OC)c(OC)c3c1[C@H](C2)N(C)CC3 [Hernandezine]
[1]; Well no.=3151, low concentration screen
  remaining activity at 1.25 µM: 100%
[2]; Well no.=3151, high concentration screen
  remaining activity at 3.75 µM: 101%

## C[C@@H](NCCc1ccc(O)cc1)[C@@H](O)c1ccc(O)cc1 (racemic) [Ritodrine hydrochloride]
[1]; Well no.=1156, low concentration screen
  remaining activity at 1.25 µM: 97.7%
[2]; Well no.=1156, high concentration screen
  remaining activity at 3.75 µM: 103%

## CCCCOC(=O)NC(=O)C1c2ccccc2Oc2ccccc21 [Ro 67-4853]
[1]; Well no.=5989, low concentration screen
  remaining activity at 1.25 µM: 102%
[2]; Well no.=5989, high concentration screen
  remaining activity at 3.75 µM: 99.5%

## CC(Oc1c(Cl)cccc1Cl)C1=NCCN1 (centres unmarked) [Lofexidine.HCl]
[1]; Well no.=1971, low concentration screen
  remaining activity at 1.25 µM: 101%
[2]; Well no.=1971, high concentration screen
  remaining activity at 3.75 µM: 102%

## Cc1c(Cc2ccc3ccccc3n2)c2cc(F)ccc2n1CC(=O)O [OC000459]
[1]; Well no.=7765, low concentration screen
  remaining activity at 1.25 µM: 108%
[2]; Well no.=7765, high concentration screen
  remaining activity at 3.75 µM: 105%

## Cc1cc2c(cc1CC(=O)c1sccc1S(=O)(=O)Nc1onc(C)c1Cl)OCO2 [Sitaxentan sodium (TBC-11251)]
[1]; Well no.=4887, low concentration screen
  remaining activity at 1.25 µM: 95.6%
[2]; Well no.=4887, high concentration screen
  remaining activity at 3.75 µM: 98.3%

## CCN1CCN(Cc2ccc(-c3cc4c(N[C@H](C)c5ccccc5)ncnc4[nH]3)cc2)CC1 [AEE788 (NVP-AEE788)]
[1]; Well no.=5247, low concentration screen
  remaining activity at 1.25 µM: 102%
[2]; Well no.=5247, high concentration screen
  remaining activity at 3.75 µM: 102%

## CO[C@H]1C[C@@H]2CC[C@@H](C)[C@@](O)(O2)C(=O)C(=O)N2CCCC[C@H]2C(=O)O[C@H]([C@H](C)C[C@@H]2CC[C@@H](OCCO)[C@H](OC)C2)CC(=O)[C@H](C)/C=C(\C)[C@@H](O)[C@@H](OC)C(=O)[C@H](C)C[C@H](C)/C=C/C=C/C=C/1C [Everolimus]
[1]; Well no.=8740, low concentration screen
  remaining activity at 1.25 µM: 90.8%
[2]; Well no.=8740, high concentration screen
  remaining activity at 3.75 µM: 87.3%

## CCCCC/C=C/C/C=C/C/C=C/C/C=C/CCCCCC(=O)O [Adrenic acid (22:4 n-6)]
[1]; Well no.=4253, low concentration screen
  remaining activity at 1.25 µM: 105%
[2]; Well no.=4253, high concentration screen
  remaining activity at 3.75 µM: 98.5%

## Cc1cc(Cl)ccc1OCCCC(=O)NO [Droxinostat]
[1]; Well no.=5239, low concentration screen
  remaining activity at 1.25 µM: 101%
[2]; Well no.=5239, high concentration screen
  remaining activity at 3.75 µM: 96.2%

## CN(CCOc1ccc(CC2SC(=O)NC2=O)cc1)c1ccccn1 (centres unmarked) [Rosiglitazone HCl]
[1]; Well no.=4758, low concentration screen
  remaining activity at 1.25 µM: 102%
[2]; Well no.=4758, high concentration screen
  remaining activity at 3.75 µM: 97.3%

## CCOC(=O)[C@H](CCc1ccccc1)N[C@H]1CCc2ccccc2N(CC(=O)O)C1=O [Benazepril HCl]
[1]; Well no.=5153, low concentration screen
  remaining activity at 1.25 µM: 97.7%
[2]; Well no.=5153, high concentration screen
  remaining activity at 3.75 µM: 101%

## CSCC[C@H](NC(=O)[C@H](Cc1ccccc1)NC(=O)CNC(=O)CNC(=O)[C@@H](N)Cc1ccc(O)cc1)C(=O)O [Tyr-Gly-Gly-Phe-Met-OH]
[1]
  remaining activity at 1.25 µM: 98.2%
[2]
  remaining activity at 3.75 µM: 101%

## NC(=O)c1ccc(CNC(=O)NC[C@H]2CN(Cc3ccc(Cl)c(Cl)c3)CCO2)cc1 [GW 766994]
[1]; Well no.=8595, low concentration screen
  remaining activity at 1.25 µM: 104%
[2]; Well no.=8595, high concentration screen
  remaining activity at 3.75 µM: 103%

## C[N+](C)(C)CCCCCNCC12CC3CC(CC(C3)C1)C2 [IEM-1460]
[1]; Well no.=524, low concentration screen
  remaining activity at 1.25 µM: 105%
[2]; Well no.=524, high concentration screen
  remaining activity at 3.75 µM: 105%

## C#CCN[C@@H]1CCc2ccccc21 [Rasagiline mesylate]
[1]; Well no.=4766, low concentration screen
  remaining activity at 1.25 µM: 98.4%
[2]; Well no.=4766, high concentration screen
  remaining activity at 3.75 µM: 97.6%
